Results: article PMC6986724, “Crystal structure of PMGL2 esterase from the hormone-sensitive lipase family with GCSAG motif around the catalytic serine” (PLoS ONE, 2020)

Biological target: T1, PMGL2 (uncultured bacterium, UniProt Z9SFY5SHV8, S173T/C202S, form not given)
T1 construct: recombinant, cloned into pET32a, poly-His tag; homodimer; GCSAG motif 172-176, catalytic Ser174, Asp272, His302; 319 residues visible in the mutant crystal
T1 sequence (Z9SFY5SHV8 1-343 S173T/C202S): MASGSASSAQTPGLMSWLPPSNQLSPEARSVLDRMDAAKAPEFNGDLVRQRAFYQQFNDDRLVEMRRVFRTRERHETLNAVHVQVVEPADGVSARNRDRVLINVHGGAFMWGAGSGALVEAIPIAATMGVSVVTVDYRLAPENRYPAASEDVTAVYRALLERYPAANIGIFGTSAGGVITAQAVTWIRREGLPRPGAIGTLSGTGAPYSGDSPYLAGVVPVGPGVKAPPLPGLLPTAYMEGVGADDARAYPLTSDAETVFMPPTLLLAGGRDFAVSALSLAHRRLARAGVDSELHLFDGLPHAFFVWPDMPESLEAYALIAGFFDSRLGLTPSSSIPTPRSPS
Assay: esterase kinetics
Format: biochemical
Conditions: 25 °C

- Km: 450 µM
Compound: CCCC(=O)Oc1ccc([N+](=O)[O-])cc1 [p-nitrophenyl butyrate]
